ChEMBL document CHEMBL1201862, “PubChem BioAssay data set” (2004)
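Exposure lasted 48 hours, with cells grown in 96-well plates and compounds tested at five concentrations. The concentration for 50% growth inhibition is given as GI50.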 Activity calls are given as the source filed them. No stated cut-off is given here; in the data, active = GI50 up to about 1.1 µM and inactive = higher.

Columns and labels:
Experiment in all cases: DTP human tumour cell line panel, 48 h
SK-MEL-28 = test system: SK-MEL-28
PC-3 = test system: PC-3
K562 = test system: K562
SK-MEL-2 = test system: SK-MEL-2
KM12 = test system: KM12
MOLT-4 = test system: MOLT-4
T47D = test system: T47D
A498 = test system: A498
UO-31 = test system: UO-31
DU-145 = test system: DU-145
HT-29 = test system: HT-29
SF-268 = test system: SF-268
A549 = test system: A549
MDA-MB-231 = test system: MDA-MB-231
BT-549 = test system: BT-549
OVCAR-5 = test system: OVCAR-5
SK-OV-3 = test system: SK-OV-3
HOP-92 = test system: HOP-92
OVCAR-4 = test system: OVCAR-4
RXF 393 = test system: RXF 393

Measured: GI50

Oc1ccc2cc(Br)ccc2c1-c1c(O)ccc2ccc(Br)cc12
inactive: SK-MEL-28 18.7 µM | PC-3 12.6 µM | K562 18.5 µM | SK-MEL-2 16 µM | KM12 6.84 µM | MOLT-4 4.85 µM | T47D 12.7 µM | A498 17.3 µM | UO-31 15.3 µM | DU-145 15.8 µM | HT-29 3.07 µM | SF-268 20 µM | A549 15.2 µM | MDA-MB-231 10 µM | BT-549 14.7 µM | OVCAR-5 16.9 µM | SK-OV-3 12.2 µM

COc1cccc(Nc2nc(-c3cccs3)nc3cc(OC)c(OC)cc23)c1
inactive: SK-MEL-28 31.5 µM | PC-3 27.9 µM | K562 37.1 µM | SK-MEL-2 35.8 µM | KM12 30.4 µM | HOP-92 25 µM | MOLT-4 53.6 µM | T47D 42.8 µM | A498 18.9 µM | UO-31 51.8 µM | DU-145 55.6 µM | HT-29 24.8 µM | OVCAR-4 41.3 µM | SF-268 40.9 µM | A549 29 µM | MDA-MB-231 23 µM | BT-549 25.9 µM | OVCAR-5 31.9 µM | SK-OV-3 53 µM

CCOC(=O)N1CC2(C(=O)OC)C=CC1C(C(=O)OC)C2 (configuration not stated)
inactive: SK-MEL-28 > 100 µM | PC-3 > 100 µM | K562 > 100 µM | SK-MEL-2 > 100 µM | KM12 > 100 µM | MOLT-4 > 100 µM | T47D > 100 µM | A498 > 100 µM | UO-31 > 100 µM | DU-145 > 100 µM | OVCAR-4 > 100 µM | SF-268 > 100 µM | A549 > 100 µM | MDA-MB-231 > 100 µM | BT-549 > 100 µM | OVCAR-5 > 100 µM | SK-OV-3 > 100 µM | RXF 393 > 100 µM

COc1cccc2c1CCc1sc(CN3CCN(C)CC3)nc1-2
inactive: SK-MEL-28 49.7 µM | PC-3 44.8 µM | K562 31.4 µM | SK-MEL-2 > 100 µM | KM12 80.2 µM | MOLT-4 22.4 µM | T47D 33.8 µM | A498 26.7 µM | UO-31 > 100 µM | DU-145 > 100 µM | HT-29 20.4 µM | OVCAR-4 > 100 µM | SF-268 > 100 µM | A549 > 100 µM | MDA-MB-231 85.7 µM | BT-549 > 100 µM | OVCAR-5 > 100 µM | SK-OV-3 > 100 µM | RXF 393 6.84 µM

CC1(C)O[C@@H]([C@@H](O)[C@H](O)C2SCCCS2)[C@@H](CO)O1
inactive: SK-MEL-28 > 100 µM | PC-3 > 100 µM | K562 > 100 µM | SK-MEL-2 > 100 µM | KM12 > 100 µM | HOP-92 > 100 µM | MOLT-4 > 100 µM | T47D > 100 µM | A498 > 100 µM | UO-31 > 100 µM | DU-145 > 100 µM | HT-29 > 100 µM | SF-268 > 100 µM | A549 > 100 µM | MDA-MB-231 > 100 µM | BT-549 > 100 µM | OVCAR-5 > 100 µM | SK-OV-3 > 100 µM | RXF 393 > 100 µM

O=C1OC(C2(O)OC(=O)c3ccccc32)c2ccccc21 (configuration not stated)
inactive: SK-MEL-28 > 100 µM | PC-3 > 100 µM | SK-MEL-2 > 100 µM | KM12 > 100 µM | HOP-92 > 100 µM | MOLT-4 > 100 µM | T47D > 100 µM | A498 > 100 µM | UO-31 > 100 µM | DU-145 > 100 µM | HT-29 > 100 µM | OVCAR-4 > 100 µM | SF-268 > 100 µM | A549 > 100 µM | MDA-MB-231 > 100 µM | BT-549 > 100 µM | OVCAR-5 > 100 µM | SK-OV-3 > 100 µM | RXF 393 > 100 µM

COc1cc(-c2nc3ccccn3c2/N=C/c2cc(Br)cc(Br)c2O)ccc1O
inactive: SK-MEL-28 16.6 µM | PC-3 22.6 µM | K562 28.6 µM | SK-MEL-2 22.3 µM | KM12 24.2 µM | HOP-92 23.4 µM | MOLT-4 22.9 µM | T47D 23.3 µM | UO-31 13.7 µM | DU-145 27.6 µM | HT-29 22.3 µM | OVCAR-4 19.4 µM | SF-268 14.3 µM | A549 > 100 µM | MDA-MB-231 15.6 µM | BT-549 20.3 µM | OVCAR-5 31.4 µM | SK-OV-3 23.9 µM | RXF 393 32.9 µM

CC1(O)CC23CC1CCC2(C)C12CCCC(C)(C(=O)O1)C2CC3O (configuration not stated)
inactive: SK-MEL-28 > 100 µM | PC-3 > 100 µM | K562 > 100 µM | SK-MEL-2 > 100 µM | KM12 > 100 µM | HOP-92 > 100 µM | T47D > 100 µM | A498 > 100 µM | UO-31 > 100 µM | DU-145 > 100 µM | HT-29 > 100 µM | OVCAR-4 > 100 µM | SF-268 > 100 µM | A549 > 100 µM | MDA-MB-231 > 100 µM | BT-549 > 100 µM | OVCAR-5 > 100 µM | SK-OV-3 > 100 µM

Cn1c2ccccc2c(=O)c2cccc(C(=O)NC(CCC(N)=O)C(=O)O)c21 (configuration not stated)
inactive: SK-MEL-28 > 100 µM | PC-3 > 100 µM | K562 > 100 µM | SK-MEL-2 > 100 µM | KM12 > 100 µM | MOLT-4 > 100 µM | T47D > 100 µM | A498 > 100 µM | UO-31 > 10 µM | DU-145 > 100 µM | HT-29 > 100 µM | OVCAR-4 > 100 µM | SF-268 > 100 µM | A549 > 100 µM | MDA-MB-231 > 100 µM | BT-549 > 100 µM | OVCAR-5 > 100 µM | SK-OV-3 > 100 µM

C=C1C2CCC3C4(C)CCCC(C)(C(=O)O)C4CCC3(C2)C1OC(=O)/C(C)=C/C (configuration not stated)
inactive: SK-MEL-28 51.6 µM | PC-3 31.3 µM | SK-MEL-2 36.1 µM | KM12 17.3 µM | HOP-92 25.6 µM | T47D 43 µM | A498 25.3 µM | UO-31 21 µM | DU-145 42.3 µM | HT-29 33.4 µM | OVCAR-4 41.6 µM | SF-268 38.7 µM | A549 35.9 µM | MDA-MB-231 20.9 µM | BT-549 41.8 µM | OVCAR-5 28.4 µM | SK-OV-3 27.5 µM | RXF 393 15.9 µM

N#Cc1c(N)c2c(c(-c3ccccc3)c1-c1ccccc1)C(=O)N(Nc1ccccc1)C2=O
inactive: SK-MEL-28 46.6 µM | PC-3 28.3 µM | K562 33.6 µM | SK-MEL-2 30.1 µM | KM12 24.2 µM | HOP-92 48.1 µM | MOLT-4 27.4 µM | T47D 19.4 µM | A498 28.4 µM | UO-31 24.7 µM | DU-145 31.3 µM | OVCAR-4 35.1 µM | SF-268 59.2 µM | A549 26.9 µM | MDA-MB-231 > 100 µM | BT-549 56.1 µM | OVCAR-5 27 µM | RXF 393 19.3 µM
